Experimental findings from ChEMBL document CHEMBL5154660, “Straightforward access to novel mitochondriotropics derived from 2-arylethanol as potent and selective antiproliferative agents” (Eur J Med Chem, 2022) are described below.

The source made the active and inactive calls. The calls are words filed in the database; no cut-off is given here.

Data set [1] concerns SW1573. The data set can be described thus: Antiproliferative activity against human SW1573 cells assessed as reduction in cell growth. Type of data set: functional.
Data set [2] relates to HBL-100. Briefly: Antiproliferative activity against human HBL-100 cells assessed as reduction in cell growth. Type of data set: functional.
The subject of data set [3] is WiDr. The data set can be described thus: Antiproliferative activity against human WiDr cells assessed as reduction in cell growth. It counts as functional.
For data set [4], the system named is HeLa. The data set can be described thus: Antiproliferative activity against human HeLa cells assessed as reduction in cell growth. It counts as functional.
For data set [5], the system named is T47D. Briefly: Antiproliferative activity against human T47D cells assessed as reduction in cell growth. Type of data set: functional.
Data set [6] concerns A549. The data set can be described thus: Antiproliferative activity against human A549 cells assessed as reduction in cell growth. It counts as functional.
Data set [7] can be described thus: Antiproliferative activity against human hTERT-BJ cells assessed as reduction in cell growth. Type of data set: toxicity, cell-based.
The subject of data set [8] is NCI-H460. The data set can be described thus: Antiproliferative activity against human NCI-H460 cells assessed as reduction in cell growth measured after 48 hrs by sulforhodamine B assay. Type of data set: functional.
Data set [9] relates to NCI-H460. Briefly: Cell cycle arrest in human NCI-H460 cells assessed as decrease in accumulation at G1 phase at 600 nM measured after 48 hrs by propidium iodide staining based flow cytometry analysis. Type of data set: functional.
Data set [10] concerns NCI-H460. The data set can be described thus: Induction of mitochondrial membrane potential loss in human NCI-H460 cells assessed as depolarization of mitochondrial membrane at 600 nM incubated for 24 hrs by JC-1 staining based flow cytometry assay. It counts as functional, cell-based.
For data set [11], the system named is NCI-H460. Briefly: Antiproliferative activity against human multi-drug resistant NCI-H460/R cells overexpressing P-glycoprotein assessed as cell growth inhibition in presence of tariquidar measured after 48 hrs by sulforhodamine B assay. It counts as functional. The conditions noted are these: dose 0.01-100 µM.
Data set [12] concerns NCI-H460. Briefly: Induction of apoptosis in human NCI-H460 cells assessed as increase in necrotic cells at 600 nM incubated for 48 hrs by annexin-V-FITC and PI staining based flow cytometry analysis (reference value: 2 %). It counts as functional.
In data set [13] the test system is NCI-H460. Briefly: Cell cycle arrest in human NCI-H460 cells assessed as increase in accumulation at G2/M phase at 600 nM measured after 48 hrs by propidium iodide staining based flow cytometry analysis. It counts as functional.
In data set [14] the test system is NCI-H460. Briefly: Cell cycle arrest in human NCI-H460 cells assessed as increase in accumulation at subG1 phase at 600 nM measured after 48 hrs by propidium iodide staining based flow cytometry analysis. Type of data set: functional.
Data set [15] in a line: Resistant index, ratio of GI50 for human multi-drug resistant NCI-H460/R cells to GI50 for human NCI-H460 cells. Type of data set: functional.
Data set [16] relates to NCI-H460. The data set can be described thus: Induction of mitochondrial membrane potential loss in human NCI-H460 cells assessed as depolarization of mitochondrial membrane at 600 nM incubated for 48 hrs by JC-1 staining based flow cytometry assay. Type of data set: functional, cell-based.
The nature of data set [17]: Antiproliferative activity against human MRC5 cells assessed as reduction in cell growth measured after 48 hrs by sulforhodamine B assay. It counts as toxicity, cell-based.
Data set [18] concerns NCI-H460. Briefly: Antiproliferative activity against human multi-drug resistant NCI-H460/R cells overexpressing P-glycoprotein assessed as reduction in cell growth measured after 48 hrs by sulforhodamine B assay. It counts as functional.
For data set [19], the system named is NCI-H460. Briefly: Cell cycle arrest in human NCI-H460 cells assessed as increase in accumulation at S phase at 600 nM measured after 48 hrs by propidium iodide staining based flow cytometry analysis. It counts as functional.

`COc1ccc(CCOCCCCCC[P+](c2ccccc2)(c2ccccc2)c2ccccc2)cc1`: the GI50 in [1] worked out at 220 nM; in data set [2], 370 nM; in data set [3], 230 nM; in data set [4], 270 nM; in [5] it was 200 nM; in data set [6], 260 nM. Besides, the GI50 in data set [7] was 30000 nM.
`[Br-].c1ccc([P+](CCCCCCOCCc2ccc3c(c2)OCO3)(c2ccccc2)c2ccccc2)cc1`: the GI50 is 600 nM in data set [8]; 350 nM in data set [1]; 580 nM in [2]; 590 nM in data set [11]; 240 nM in data set [3]; 350 nM in [4]. Besides, the GI50 in [5] was found to be 270 nM; in [6] it was 870 nM; in [7], 43000 nM; in data set [18], 3600 nM. Besides, the result in data set [9], in data set [10], in [13], in [14], in data set [16] and in data set [19] was Active. Further, the Activity in [12] came to 27%. Also, the RatioGI50 in [15] is 6. Also, in [17], the GI50 at 48 h was determined as 62700 nM.
Regarding `c1ccc(COc2ccc(CCOCCCCC[P+](c3ccccc3)(c3ccccc3)c3ccccc3)cc2)cc1`, the concentration for 50% growth inhibition (GI50) was found to be 89 nM in data set [1]; 84 nM in data set [2]; 180 nM in data set [3]; 77 nM in data set [4]; 190 nM in [5]; 88 nM in data set [6]. For the same molecule, the GI50 in data set [7] is 2900 nM.
Take `[Br-].c1ccc(CCOCCCCCC[P+](c2ccccc2)(c2ccccc2)c2ccccc2)cc1`: the GI50 came to 570 nM in [8]; 160 nM in data set [1]; 260 nM in data set [2]; 610 nM in [11]; 140 nM in data set [3]; 170 nM in [4]. The GI50 in [5] was 140 nM; in data set [6], 130 nM; in data set [7] it was 35000 nM; in data set [18] it was 4600 nM. For the same molecule, the outcome in [9], in data set [10], in [13], in data set [14], in [16] and in data set [19] was Active. Also, the Activity in data set [12] was determined as 37%. Also, the RatioGI50 in data set [15] was 8.1. Moreover, the GI50 at 48 h in [17] turned out to be 15300 nM.
For the molecule `O=c1[nH]cc(F)c(=O)[nH]1` [FLUOROURACIL], the GI50 in data set [1] came to 3300 nM; in data set [2] it was 4400 nM; in data set [3], 49000 nM; in data set [4], 16000 nM; in data set [5], 43000 nM; in [6] it was 2200 nM. In data set [7], the GI50 worked out at 5500 nM.
As for `c1ccc(COc2ccc(CCOCCCCCC[P+](c3ccccc3)(c3ccccc3)c3ccccc3)cc2OCc2ccccc2)cc1`, the concentration for 50% growth inhibition (GI50) in data set [1] came out at 350 nM; in data set [2], 470 nM; in data set [3], 1000 nM; in data set [4], 320 nM; in [5] it was 810 nM; in data set [6] it was 250 nM. In addition, in data set [7], the GI50 worked out at 3300 nM.
In the case of `c1ccc([P+](CCCCCOCCc2ccc3c(c2)OCO3)(c2ccccc2)c2ccccc2)cc1`, the GI50 stood at 640 nM in data set [1]; 680 nM in data set [2]; 330 nM in [3]; 540 nM in data set [4]; 360 nM in data set [5]; 1400 nM in [6]. For the same molecule, the concentration for 50% growth inhibition (GI50) in [7] came to 37000 nM.
With `COc1ccc(CCOCCCCCCCCCCCC[P+](c2ccccc2)(c2ccccc2)c2ccccc2)cc1OC`, the GI50 in data set [1] came to 170 nM; in data set [2], 260 nM; in data set [3], 220 nM; in data set [4] it was 210 nM; in data set [5], 210 nM; in [6], 26 nM. Further, the GI50 in data set [7] is 4300 nM.
Consider `c1ccc([P+](CCCCCCCCCCCCOCCc2ccc3c(c2)OCO3)(c2ccccc2)c2ccccc2)cc1`, for which the GI50 in [1] was 170 nM; in data set [2] it was 210 nM; in data set [3], 190 nM; in data set [4], 220 nM; in [5] it was 180 nM; in [6], 59 nM. Further, the concentration for 50% growth inhibition (GI50) in data set [7] turned out to be 4600 nM.
`COc1ccc(CCOCCCCCC[P+](c2ccccc2)(c2ccccc2)c2ccccc2)cc1OC`: the GI50 in [1] is 490 nM; in [2], 550 nM; in data set [3], 380 nM; in data set [4], 420 nM; in data set [5], 460 nM; in [6] it was 740 nM. Also, the GI50 in data set [7] came out at 34000 nM.
Regarding `COc1ccc(CCOCCCCCCCCCCCC[P+](c2ccccc2)(c2ccccc2)c2ccccc2)cc1`, the GI50 in [1] turned out to be 250 nM; in [2], 340 nM; in [3] it was 320 nM; in [4] it was 320 nM; in [5], 290 nM; in data set [6] it was 180 nM. Also, in data set [7], the GI50 turned out to be 3600 nM.
Consider `c1ccc(COc2ccc(CCOCCCCCC[P+](c3ccccc3)(c3ccccc3)c3ccccc3)cc2)cc1`, for which the concentration for 50% growth inhibition (GI50) in data set [1] came out at 120 nM; in data set [2], 250 nM; in data set [3], 240 nM; in [4], 180 nM; in data set [5], 200 nM; in data set [6], 120 nM. In data set [7], the GI50 was found to be 3100 nM.
With `c1ccc(COc2ccc(CCOCCCCC[P+](c3ccccc3)(c3ccccc3)c3ccccc3)cc2OCc2ccccc2)cc1`, the GI50 in [1] amounted to 230 nM; in data set [2], 200 nM; in [3] it was 310 nM; in data set [4], 270 nM; in [5] it was 310 nM; in data set [6] it was 130 nM. Moreover, the GI50 in data set [7] stood at 3500 nM.
For the molecule `c1ccc(CCOCCCCCCCCCCCC[P+](c2ccccc2)(c2ccccc2)c2ccccc2)cc1`, the GI50 in [1] came out at 250 nM; in data set [2], 290 nM; in data set [3] it was 260 nM; in data set [4] it was 330 nM; in data set [5] it was 270 nM; in [6], 170 nM. In data set [7], the GI50 turned out to be 4400 nM.
Take `COc1ccc(CCOCCCCC[P+](c2ccccc2)(c2ccccc2)c2ccccc2)cc1OC`: the concentration for 50% growth inhibition (GI50) in data set [1] came to 2100 nM; in data set [2] it was 4200 nM; in data set [3] it was 1500 nM; in data set [4], 2300 nM; in data set [5] it was 2000 nM; in data set [6] it was 3400 nM. For the same molecule, the GI50 in data set [7] was 57000 nM.
For the molecule `c1ccc(CCOCCCCC[P+](c2ccccc2)(c2ccccc2)c2ccccc2)cc1`, the GI50 in data set [1] was determined as 330 nM; in [2] it was 440 nM; in data set [3], 220 nM; in data set [4], 310 nM; in [5] it was 220 nM; in [6], 370 nM. Moreover, the GI50 in [7] came out at 32000 nM.
`c1ccc(COc2ccc(CCOCCCCCCCCCCCC[P+](c3ccccc3)(c3ccccc3)c3ccccc3)cc2OCc2ccccc2)cc1`: the GI50 in data set [1] stood at 320 nM; in [2], 240 nM; in [3], 450 nM; in [4], 330 nM; in [5], 500 nM; in [6] it was 170 nM. Further, the GI50 in [7] came to 3500 nM.
Consider `c1ccc(COc2ccc(CCOCCCCCCCCCCCC[P+](c3ccccc3)(c3ccccc3)c3ccccc3)cc2)cc1`, for which the GI50 in data set [1] stood at 420 nM; in data set [2], 370 nM; in data set [3] it was 770 nM; in data set [4], 600 nM; in data set [5], 570 nM; in data set [6] it was 450 nM. The concentration for 50% growth inhibition (GI50) in data set [7] is 3300 nM.
As to `COc1ccc(CCOCCCCC[P+](c2ccccc2)(c2ccccc2)c2ccccc2)cc1`, the GI50 in data set [1] worked out at 370 nM; in data set [2] it was 520 nM; in data set [3] it was 330 nM; in data set [4], 390 nM; in data set [5], 310 nM; in data set [6], 400 nM. The GI50 in data set [7] came to 28000 nM.
